Earlier results as cited in US10052328B2, “Therapeutic composition to treat lesions caused by Herpes Simplex Virus” (G2L TOUCH, INC., priority 2009, dated 2018).

Tested on: cold sore (labial herpes simplex)
Settings: commercial topical cream, versus untreated cold sores

## Nc1nc(=O)c2ncn(CCC(CO)CO)c2[nH]1 [PCV, 2-amino-9-[4-hydroxy-3-(hydroxymethyl)butyl]-6,9-dihydro-3H-purin-6-one]
  reduction of the duration of a cold sore / lesion, on average: 0.5 days
